Assay results taken from publication PMC7018746, “An efficient and targeted synthetic approach towards new highly substituted 6-amino-pyrazolo[1,5-a]pyrimidines with α-glucosidase inhibitory activity” (Scientific Reports, 2020).
Like-named read-outs stand apart in the source and are kept apart here.

How the values were obtained:
[1] = molecular target: T1, α-glucosidase (Saccharomyces cerevisiae, EC.3.2.1.20) (Saccharomyces cerevisiae, UniProt P53341); test: biochemical; format: biochemical; details: mean ± SD, at least three experiments, read-out: IC50 (µM), in vitro α-glucosidase inhibitory activity
T1 construct: purchased Sigma-Aldrich
T1 sequence (P53341 whole entry): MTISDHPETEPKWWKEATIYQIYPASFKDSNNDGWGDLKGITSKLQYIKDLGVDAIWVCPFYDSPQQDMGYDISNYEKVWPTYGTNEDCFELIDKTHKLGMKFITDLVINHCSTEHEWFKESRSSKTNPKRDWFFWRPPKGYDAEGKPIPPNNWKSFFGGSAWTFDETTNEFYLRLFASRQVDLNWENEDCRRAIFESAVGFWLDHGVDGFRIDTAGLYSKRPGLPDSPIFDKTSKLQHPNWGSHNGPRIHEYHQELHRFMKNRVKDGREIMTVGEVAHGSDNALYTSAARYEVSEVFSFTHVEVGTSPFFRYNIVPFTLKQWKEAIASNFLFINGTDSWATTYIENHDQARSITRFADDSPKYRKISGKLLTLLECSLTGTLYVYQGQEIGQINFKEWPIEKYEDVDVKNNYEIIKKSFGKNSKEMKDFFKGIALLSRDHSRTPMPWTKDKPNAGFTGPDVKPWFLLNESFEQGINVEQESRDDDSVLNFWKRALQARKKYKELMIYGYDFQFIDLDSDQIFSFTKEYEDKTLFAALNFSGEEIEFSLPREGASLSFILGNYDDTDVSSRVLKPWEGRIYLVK
Protocol: α-Glucosidase enzyme (EC3.2.1.20, Saccharomyces cerevisiae, 20 U/mg) and substrate (p-nitrophenyl glucopyranoside) were purchased from Sigma-Aldrich. […] Finally, the change in absorbance was measured at 405 nm by using spectrophotometer (Gen5, Power wave xs2, BioTek, America). DMSO (10% final concentration) and acarbose were used respectively as control and standard drug. The percentage of enzyme inhibitionwas calculated and IC50 values were obtained from non-linear regression curve using the Logit method.

Compound	melting point [°C]	IC50 ([1]; Table 1, compounds 3a-z) [µM]	IC50 ([1]; Table 2, compounds 3aa-ai) [µM]
Nc1c(-c2ccccc2)nc2c(C(=O)Nc3ccccc3)c(Nc3ccccc3)nn2c1-c1ccc(Cl)cc1 [3a, 6-Amino-7-(4-chlorophenyl)-N,5-diphenyl-2-(phenylamino)pyrazolo[1,5-a]pyrimidine-3-carboxamide]	248 to 249	37.8 ± 2.5	–
CCOC(=O)c1c(-c2ccccc2)nn2c(-c3ccc(Cl)cc3)c(N)c(-c3ccccc3)nc12 [3aa, Ethyl 6-amino-7-(4-chlorophenyl)-2,5-diphenylpyrazolo[1,5-a]pyrimidine-3-carboxylate]	180 to 182	–	94 ± 3.6
CCOC(=O)c1c(-c2ccccc2)nn2c(-c3ccc(Cl)cc3)c(N)c(-c3ccc(C)cc3)nc12 [3ac, Ethyl 6-amino-7-(4-chlorophenyl)-2-phenyl-5-p-tolylpyrazolo[1,5-a]pyrimidine-3-carboxylate]	221 to 223	–	185 ± 6
CCOC(=O)c1c(-c2ccccc2)nn2c(-c3ccc(Br)cc3)c(N)c(-c3ccc(C)cc3)nc12 [3ad, Ethyl 6-amino-7-(4-bromophenyl)-2-phenyl-5-p-tolylpyrazolo[1,5-a]pyrimidine-3-carboxylate]	230 to 232	–	141 ± 7
CCOC(=O)c1c(-c2ccccc2)nn2c(-c3ccccc3)c(N)c(-c3ccc(OC)cc3)nc12 [3ae, Ethyl 6-amino-5-(4-methoxyphenyl)-2,7-diphenylpyrazolo[1,5-a]pyrimidine-3-carboxylate]	189 to 190	–	116 ± 1.8
CCOC(=O)c1c(-c2ccccc2)nn2c(-c3ccccc3)c(N)c(-c3ccc(Cl)cc3)nc12 [3ag, Ethyl 6-amino-5-(4-chlorophenyl)-2,7-diphenylpyrazolo[1,5-a]pyrimidine-3-carboxylate]	238 to 239	–	201 ± 4.2
Nc1c(-c2ccc(Cl)cc2)nc2c(C(=O)Nc3ccccc3)c(Nc3ccccc3)nn2c1-c1ccc(Cl)cc1 [3h, 6-Amino-5,7-bis(4-chlorophenyl)-N-phenyl-2-(phenylamino)pyrazolo[1,5-a]pyrimidine-3-carboxamide]	281 to 283	25.7 ± 1.1	–
COc1ccc(NC(=O)c2c(Nc3ccccc3)nn3c(-c4ccc(Cl)cc4)c(N)c(-c4ccc(C)cc4)nc23)cc1 [3l, 6-Amino-7-(4-chlorophenyl)-N-(4-methoxyphenyl)-2-(phenylamino)-5-p-tolylpyrazolo[1,5-a]pyrimidine-3-carboxamide]	263 to 265	49.3 ± 3.3	–
Nc1c(-c2ccccc2)nc2c(C(=O)Nc3ccc(Cl)cc3)c(Nc3ccccc3)nn2c1-c1ccc(Cl)cc1 [3s, 6-Amino-N,7-bis(4-chlorophenyl)-5-phenyl-2-(phenylamino)pyrazolo[1,5-a]pyrimidine-3-carboxamide]	274 to 275	42.3 ± 3.1	–
Cc1ccc(-c2nc3c(C(=O)Nc4ccc(Cl)cc4)c(Nc4ccccc4)nn3c(-c3ccc(Cl)cc3)c2N)cc1 [3u, 6-Amino-N,7-bis(4-chlorophenyl)-2-(phenylamino)-5-p-tolylpyrazolo[1,5-a]pyrimidine-3-carboxamide]	281 to 282	55.6 ± 3.6	–
COc1ccc(-c2nc3c(C(=O)Nc4ccc(Cl)cc4)c(Nc4ccccc4)nn3c(-c3ccccc3)c2N)cc1 [3w, 6-Amino-N-(4-chlorophenyl)-5-(4-methoxyphenyl)-7-phenyl-2-(phenylamino)pyrazolo[1,5-a]pyrimidine-3-carboxamide]	255 to 257	53.7 ± 3.4	–
Nc1c(-c2ccc(Cl)cc2)nc2c(C(=O)Nc3ccc(Cl)cc3)c(Nc3ccccc3)nn2c1-c1ccccc1 [3x, 6-Amino-N,5-bis(4-chlorophenyl)-7-phenyl-2-(phenylamino)pyrazolo[1,5-a]pyrimidine-3-carboxamide]	255 to 257	80.3 ± 5.2	–

Continued, values first:

melting point [°C]	IC50 ([1]; Table 1, compounds 3a-z) [µM]	IC50 ([1]; Table 2, compounds 3aa-ai) [µM]	Compound
201 to 202	–	150 ± 4	CCOC(=O)c1c(-c2ccccc2)nn2c(-c3ccc(Br)cc3)c(N)c(-c3ccccc3)nc12 [3ab, Ethyl 6-amino-7-(4-bromophenyl)-2,5-diphenylpyrazolo[1,5-a]pyrimidine-3-carboxylate]
245 to 246	–	162 ± 3.2	CCOC(=O)c1c(-c2ccccc2)nn2c(-c3ccc(Cl)cc3)c(N)c(-c3ccc(Cl)cc3)nc12 [3ah, Ethyl 6-amino-5,7-bis(4-chlorophenyl)-2-phenylpyrazolo[1,5-a]pyrimidine-3-carboxylate]
192 to 193	–	153 ± 5	CCOC(=O)c1c(-c2ccccc2)nn2c(-c3cccs3)c(N)c(-c3ccc(Cl)cc3)nc12 [3ai, Ethyl 6-amino-5-(4-chlorophenyl)-2-phenyl-7-(thiophen-2-yl)pyrazolo[1,5-a]pyrimidine-3-carboxylate]
235 to 237	40 ± 2.9	–	Nc1c(-c2ccccc2)nc2c(C(=O)Nc3ccccc3)c(Nc3ccccc3)nn2c1-c1ccc(Br)cc1 [3b, 6-Amino-7-(4-bromophenyl)-N,5-diphenyl-2-(phenylamino)pyrazolo[1,5-a]pyrimidine-3-carboxamide]
232 to 233	44.5 ± 3.1	–	Cc1ccc(-c2nc3c(C(=O)Nc4ccccc4)c(Nc4ccccc4)nn3c(-c3ccc(Cl)cc3)c2N)cc1 [3c, 6-Amino-7-(4-chlorophenyl)-N-phenyl-2-(phenylamino)-5-p-tolylpyrazolo[1,5-a]pyrimidine-3-carboxamide]
257 to 259	63.3 ± 4.4	–	COc1ccc(-c2nc3c(C(=O)Nc4ccccc4)c(Nc4ccccc4)nn3c(-c3ccccc3)c2N)cc1 [3e, 6-Amino-5-(4-methoxyphenyl)-N,7-diphenyl-2-(phenylamino)pyrazolo[1,5-a]pyrimidine-3-carboxamide]
237 to 238	85.7 ± 5.3	–	COc1ccc(-c2nc3c(C(=O)Nc4ccccc4)c(Nc4ccccc4)nn3c(-c3ccc(Cl)cc3)c2N)cc1 [3f, 6-Amino-7-(4-chlorophenyl)-5-(4-methoxyphenyl)-N-phenyl-2-(phenylamino)pyrazolo[1,5-a]pyrimidine-3-carboxamide]
285 to 286	75.6 ± 5	–	Nc1c(-c2ccc(Cl)cc2)nc2c(C(=O)Nc3ccccc3)c(Nc3ccccc3)nn2c1-c1ccccc1 [3g, 6-Amino-5-(4-chlorophenyl)-N,7-diphenyl-2-(phenylamino)pyrazolo[1,5-a]pyrimidine-3-carboxamide]
270 to 271	28.1 ± 1.2	–	Nc1c(-c2ccc(Cl)cc2)nc2c(C(=O)Nc3ccccc3)c(Nc3ccccc3)nn2c1-c1cccs1 [3i, 6-Amino-5-(4-chlorophenyl)-N-phenyl-2-(phenylamino)-7-(thiophen-2-yl)pyrazolo[1,5-a]pyrimidine-3-carboxamide]
217 to 218	30.3 ± 2.1	–	COc1ccc(NC(=O)c2c(Nc3ccccc3)nn3c(-c4ccc(Cl)cc4)c(N)c(-c4ccccc4)nc23)cc1 [3j, 6-Amino-7-(4-chlorophenyl)-N-(4-methoxyphenyl)-5-phenyl-2-(phenylamino)pyrazolo[1,5-a]pyrimidine-3-carboxamide]
256 to 258	57.4 ± 3.8	–	COc1ccc(NC(=O)c2c(Nc3ccccc3)nn3c(-c4ccc(Br)cc4)c(N)c(-c4ccccc4)nc23)cc1 [3k, 6-Amino-7-(4-bromophenyl)-N-(4-methoxyphenyl)-5-phenyl-2-(phenylamino)pyrazolo[1,5-a]pyrimidine-3-carboxamide]
248 to 250	42.6 ± 1.1	–	COc1ccc(NC(=O)c2c(Nc3ccccc3)nn3c(-c4ccccc4)c(N)c(-c4ccc(OC)cc4)nc23)cc1 [3n, 6-Amino-N,5-bis(4-methoxyphenyl)-7-phenyl-2-(phenylamino)pyrazolo[1,5-a]pyrimidine-3-carboxamide]
268 to 269	56.2 ± 3.2	–	COc1ccc(NC(=O)c2c(Nc3ccccc3)nn3c(-c4ccc(Cl)cc4)c(N)c(-c4ccc(OC)cc4)nc23)cc1 [3o, 6-Amino-7-(4-chlorophenyl)-N,5-bis(4-methoxyphenyl)-2-(phenylamino)pyrazolo[1,5-a]pyrimidine-3-carboxamide]
245 to 246	33.2 ± 2.1	–	COc1ccc(NC(=O)c2c(Nc3ccccc3)nn3c(-c4ccccc4)c(N)c(-c4ccc(Cl)cc4)nc23)cc1 [3p, 6-Amino-5-(4-chlorophenyl)-N-(4-methoxyphenyl)-7-phenyl-2-(phenylamino)pyrazolo[1,5-a]pyrimidine-3-carboxamide]
245 to 246	36.5 ± 2.5	–	COc1ccc(NC(=O)c2c(Nc3ccccc3)nn3c(-c4ccc(Cl)cc4)c(N)c(-c4ccc(Cl)cc4)nc23)cc1 [3q, 6-Amino-5,7-bis(4-chlorophenyl)-N-(4-methoxyphenyl)-2-(phenylamino)pyrazolo[1,5-a]pyrimidine-3-carboxamide]
240 to 242	18.4 ± 0.6	–	COc1ccc(NC(=O)c2c(Nc3ccccc3)nn3c(-c4cccs4)c(N)c(-c4ccc(Cl)cc4)nc23)cc1 [3r, 6-Amino-5-(4-chlorophenyl)-N-(4-methoxyphenyl)-2-(phenylamino)-7-(thiophen-2-yl)pyrazolo[1,5-a]pyrimidine-3-carboxamide]
294 to 296	60 ± 4	–	Nc1c(-c2ccccc2)nc2c(C(=O)Nc3ccc(Cl)cc3)c(Nc3ccccc3)nn2c1-c1ccc(Br)cc1 [3t, 6-Amino-7-(4-bromophenyl)-N-(4-chlorophenyl)-5-phenyl-2-(phenylamino)pyrazolo[1,5-a]pyrimidine-3-carboxamide]
268 to 270	38.2 ± 2.8	–	Nc1c(-c2ccc(Cl)cc2)nc2c(C(=O)Nc3ccc(Cl)cc3)c(Nc3ccccc3)nn2c1-c1ccc(Cl)cc1 [3y, 6-Amino-N,5,7-tris(4-chlorophenyl)-2-(phenylamino)pyrazolo[1,5-a]pyrimidine-3-carboxamide]
